pEC50: −log10 of the molar value.
Tested on: Bmi-1 protein
Assay: Sandwich ELISA Assay (Bmi-1 protein level in HT-1080 cells after compound treatment)
Assay type: cell-based
Conditions: Table 1, Bmi-1 sandwich ELISA, read-out: ELISA EC50 value for Bmi-1 protein
Method in brief: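 Sandwich ELISA quantified Bmi-1 protein against recombinant standard (125–8000 pg/mL), with lysates captured overnight at 4 °C and signal by HRP/TMB at 450 nm (570 nm reference). Lysates came from HT-1080 cells incubated 40–48 h with test compounds in 0.5% DMSO.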

SMILES | pEC50
FC(F)(F)c1nc2sccn2c1-c1cncc(Nc2ccccc2)n1 [compound 122, N-phenyl-6-[6-(trifluoromethyl)imidazo[2,1-b][1,3]thiazol-5-yl]pyrazin-2-amine] | 5.52 to 7.00
FC(F)(F)c1ccc(Nc2cncc(-n3c(C(F)(F)F)nc4ncccc43)n2)cc1 [compound 123, 6-[2-(trifluoromethyl)-1H-imidazo[4,5-b]pyridin-1-yl]-N-[4-(trifluoromethyl)phenyl]pyrazin-2-amine] | 5.52 to 7.00
CCc1nc(C)c(-c2cncc(Nc3ccc(C(F)(F)F)cc3)n2)n1Cc1ccccc1 [compound 126] | 5.52 to 7.00
FC(F)(F)c1ccc(Nc2cncc(-n3c(Cl)nc4ccccc43)n2)cc1 [compound 134, 6-(2-chloro-1H-benzimidazol-1-yl)-N-[4-(trifluoromethyl)phenyl]pyrazin-2-amine] | 5.52 to 7.00
FC(F)(F)c1ccc(Nc2cccc(-n3c(C(F)(F)F)nc4ncccc43)n2)cc1 [compound 137, 6-[2-(trifluoromethyl)-1H-imidazo[4,5-b]pyridin-1-yl]-N-[4-(trifluoromethyl)phenyl]pyridin-2-amine] | 5.52 to 7.00
FC(F)(F)Oc1ccc(Nc2cncc(-c3c(C(F)(F)F)nc4cnccn34)n2)cc1 [compound 141, N-[4-(trifluoromethoxy)phenyl]-6-[2-(trifluoromethyl)imidazo[1,2-a]pyrazin-3-yl]pyrazin-2-amine] | 5.52 to 7.00
Cc1nn(C)c(C)c1-c1cccc(Nc2ccc(OC(F)(F)F)cc2)n1 [compound 144, N-[4-(trifluoromethoxy)phenyl]-6-(1,3,5-trimethyl-1H-pyrazol-4-yl)pyridin-2-amine] | 5.52 to 7.00
Cc1nc2ccccc2n1-c1cncc(Nc2ccc(CO)cc2)n1 [compound 152, (4-{[6-(2-methyl-1H-benzimidazol-1-yl)pyrazin-2-yl]amino}phenyl)methanol] | 7.00 to 8.00
Cc1nc2ccccc2n1-c1cncc(Nc2ccc(C(C)O)cc2)n1 (stereo not drawn) [compound 155, 1-(4-{[6-(2-methyl-1H-benzimidazol-1-yl)pyrazin-2-yl]amino}phenyl)ethanol] | 7.00 to 8.00
N#Cc1nc2ccccc2n1-c1cncc(Nc2ccc(C(F)(F)F)cc2)n1 [compound 157, 1-(6-{[4-(trifluoromethyl)phenyl]amino}pyrazin-2-yl)-1H-benzimidazole-2-carbonitrile] | 5.52 to 7.00
O=[N+]([O-])c1cc(Nc2ccc(C(F)(F)F)cc2)nc(-c2c(C(F)(F)F)nc3ccccn23)c1 [compound 158, 4-nitro-6-[2-(trifluoromethyl)imidazo[1,2-a]pyridin-3-yl]-N-[4-(trifluoromethyl)phenyl]pyridin-2-amine] | 7.00 to 8.00
OCCNc1cc(Nc2ccc(C(F)(F)F)cc2)nc(-c2c(C(F)(F)F)nc3ccccn23)c1 [compound 160, 2-[(2-[2-(trifluoromethyl)imidazo[1,2-a]pyridin-3-yl]-6-{[4-(trifluoromethyl)phenyl]amino}pyridin-4-yl)amino]ethanol] | 7.00 to 8.00
COCCNc1cc(Nc2ccc(C(F)(F)F)cc2)nc(-c2c(C(F)(F)F)nc3ccccn23)c1 [compound 161, N^4-(2-methoxyethyl)-6-[2-(trifluoromethyl)imidazo[1,2-a]pyridin-3-yl]-N^2-[4-(trifluoromethyl)phenyl]pyridine-2,4-diamine] | 7.00 to 8.00
Cc1cc2ccccc2n1-c1cncc(Nc2ccc(C(F)(F)F)cc2)n1 [compound 162] | 5.52 to 7.00
Cc1cc2ccccc2n1-c1cncc(Nc2ccc(OC(F)F)cc2)n1 [compound 163, N-[4-(difluoromethoxy)phenyl]-6-(2-methyl-1H-indol-1-yl)pyrazin-2-amine] | 5.52 to 7.00

More lines, now with the values ahead:

pEC50 | SMILES
8.00 to 9.00 | FC(F)(F)c1ccc(Nc2cncc(-c3c(C(F)(F)F)nc4sccn34)n2)cc1 [compound 118, 6-[6-(trifluoromethyl)imidazo[2,1-b][1,3]thiazol-5-yl]-N-[4-(trifluoromethyl)phenyl]pyrazin-2-amine]
> 9.00 | COc1ccc(Nc2cncc(-c3c(C(F)(F)F)nc4sccn34)n2)cc1 [compound 119, N-(4-methoxyphenyl)-6-[6-(trifluoromethyl)imidazo[2,1-b][1,3]thiazol-5-yl]pyrazin-2-amine]
7.00 to 8.00 | FC(F)(F)Oc1ccc(Nc2cncc(-c3c(C(F)(F)F)nc4sccn34)n2)cc1 [compound 120, N-[4-(trifluoromethoxy)phenyl]-6-[6-(trifluoromethyl)imidazo[2,1-b][1,3]thiazol-5-yl]pyrazin-2-amine]
8.00 to 9.00 | FC(F)Oc1ccc(Nc2cncc(-c3c(C(F)(F)F)nc4sccn34)n2)cc1 [compound 121, N-[4-(difluoromethoxy)phenyl]-6-[6-(trifluoromethyl)imidazo[2,1-b][1,3]thiazol-5-yl]pyrazin-2-amine]
7.00 to 8.00 | COC(=O)c1ccc(Nc2cncc(-n3c(C)nc4ccccc43)n2)cc1 [compound 133, methyl 4-{[6-(2-methyl-1H-benzimidazol-1-yl)pyrazin-2-yl]amino}benzoate]
7.00 to 8.00 | CCNc1nc2ccccc2n1-c1cncc(Nc2ccc(C(F)(F)F)cc2)n1 [compound 138, N-ethyl-1-(6-{[4-(trifluoromethyl)phenyl]amino}pyrazin-2-yl)-1H-benzimidazol-2-amine]
7.00 to 8.00 | Cc1nc2ncccc2n1-c1cccc(Nc2ccc(C(F)(F)F)cc2)n1 [compound 139, 6-(2-methyl-1H-imidazo[4,5-b]pyridin-1-yl)-N-[4-(trifluoromethyl)phenyl]pyridin-2-amine]
7.00 to 8.00 | CCc1nc2ncccc2n1-c1cccc(Nc2ccc(C(F)(F)F)cc2)n1 [compound 140, 6-(2-ethyl-1H-imidazo[4,5-b]pyridin-1-yl)-N-[4-(trifluoromethyl)phenyl]pyridin-2-amine]
7.00 to 8.00 | FC(F)Oc1ccc(Nc2cncc(-c3c(C(F)(F)F)nc4cnccn34)n2)cc1 [compound 142, N-[4-(difluoromethoxy)phenyl]-6-[2-(trifluoromethyl)imidazo[1,2-a]pyrazin-3-yl]pyrazin-2-amine]
> 9.00 | Cc1nn(C)c(C)c1-c1cncc(Nc2ccc(OC(F)F)cc2)n1 [compound 143, N-[4-(difluoromethoxy)phenyl]-6-(1,3,5-trimethyl-1H-pyrazol-4-yl)pyrazin-2-amine]
7.00 to 8.00 | CC(O)c1nc2ccccc2n1-c1cncc(Nc2ccc(C(F)(F)F)cc2)n1 (stereo not drawn) [compound 150, 1-[1-(6-{[4-(trifluoromethyl)phenyl]amino}pyrazin-2-yl)-1H-benzimidazol-2-yl]ethanol]
8.00 to 9.00 | OCc1nc2ccccn2c1-c1cncc(Nc2ccc(C(F)(F)F)cc2)n1 [compound 151, [3-(6-{[4-(trifluoromethyl)phenyl]amino}pyrazin-2-yl)imidazo[1,2-a]pyridin-2-yl]methanol]
8.00 to 9.00 | CC(=O)c1ccc(Nc2cncc(-n3c(C)nc4ccccc43)n2)cc1 [compound 153, 1-(4-{[6-(2-methyl-1H-benzimidazol-1-yl)pyrazin-2-yl]amino}phenyl)ethanone]
8.00 to 9.00 | C/C(=N\O)c1ccc(Nc2cncc(-n3c(C)nc4ccccc43)n2)cc1 [compound 156, N-{4-[(1E)-N-hydroxyethanimidoyl]phenyl}-6-(2-methyl-1H-benzimidazol-1-yl)pyrazin-2-amine]
8.00 to 9.00 | Nc1cc(Nc2ccc(C(F)(F)F)cc2)nc(-c2c(C(F)(F)F)nc3ccccn23)c1 [compound 159, 6-[2-(trifluoromethyl)imidazo[1,2-a]pyridin-3-yl]-N^2-[4-(trifluoromethyl)phenyl]pyridine-2,4-diamine]
